Patent US5071955A, “Octopeptide exhibiting antimypertensive activity” (Nippon Suisan Kaisha, Ltd., priority 1988, dated 1991)
Peptide text beside a SMILES is read from it.

Legend:
ICR mice = test: Intravenous LD50 in ICR mice; format: in vivo; conditions: in physiological saline, 6 week old male and female ICR mice, 2 week observation
Description: (§1) The peptide of formula (I) prepared in Example 2 was dissolved in physiological saline.
(§2) Various concentrations of the peptide in physiological saline were intravenously administered to test animal groups each consisting of 6 week old male (10/group) or female (10/group) ICR mice, or 6 week old male (10/group) or female (10/group) Wistar rats. The LD50 value was determined after a 2 week observation period.

Wistar rats = test: Intravenous LD50 in Wistar rats; format: in vivo; conditions: in physiological saline, 6 week old male and female Wistar rats, 2 week observation
Description: as §1, §2

[1] = target: Angiotensin I converting enzyme (ACE) (Homo sapiens, UniProt P12821); test: Angiotensin I converting enzyme (ACE) inhibitory activity, method of Cushman and Cheung; format: biochemical; conditions: Hip-His-Leu substrate, pH 8.3, 37° C., 30 min
Angiotensin I converting enzyme (ACE), sequence (P12821 30-1306, species assumed): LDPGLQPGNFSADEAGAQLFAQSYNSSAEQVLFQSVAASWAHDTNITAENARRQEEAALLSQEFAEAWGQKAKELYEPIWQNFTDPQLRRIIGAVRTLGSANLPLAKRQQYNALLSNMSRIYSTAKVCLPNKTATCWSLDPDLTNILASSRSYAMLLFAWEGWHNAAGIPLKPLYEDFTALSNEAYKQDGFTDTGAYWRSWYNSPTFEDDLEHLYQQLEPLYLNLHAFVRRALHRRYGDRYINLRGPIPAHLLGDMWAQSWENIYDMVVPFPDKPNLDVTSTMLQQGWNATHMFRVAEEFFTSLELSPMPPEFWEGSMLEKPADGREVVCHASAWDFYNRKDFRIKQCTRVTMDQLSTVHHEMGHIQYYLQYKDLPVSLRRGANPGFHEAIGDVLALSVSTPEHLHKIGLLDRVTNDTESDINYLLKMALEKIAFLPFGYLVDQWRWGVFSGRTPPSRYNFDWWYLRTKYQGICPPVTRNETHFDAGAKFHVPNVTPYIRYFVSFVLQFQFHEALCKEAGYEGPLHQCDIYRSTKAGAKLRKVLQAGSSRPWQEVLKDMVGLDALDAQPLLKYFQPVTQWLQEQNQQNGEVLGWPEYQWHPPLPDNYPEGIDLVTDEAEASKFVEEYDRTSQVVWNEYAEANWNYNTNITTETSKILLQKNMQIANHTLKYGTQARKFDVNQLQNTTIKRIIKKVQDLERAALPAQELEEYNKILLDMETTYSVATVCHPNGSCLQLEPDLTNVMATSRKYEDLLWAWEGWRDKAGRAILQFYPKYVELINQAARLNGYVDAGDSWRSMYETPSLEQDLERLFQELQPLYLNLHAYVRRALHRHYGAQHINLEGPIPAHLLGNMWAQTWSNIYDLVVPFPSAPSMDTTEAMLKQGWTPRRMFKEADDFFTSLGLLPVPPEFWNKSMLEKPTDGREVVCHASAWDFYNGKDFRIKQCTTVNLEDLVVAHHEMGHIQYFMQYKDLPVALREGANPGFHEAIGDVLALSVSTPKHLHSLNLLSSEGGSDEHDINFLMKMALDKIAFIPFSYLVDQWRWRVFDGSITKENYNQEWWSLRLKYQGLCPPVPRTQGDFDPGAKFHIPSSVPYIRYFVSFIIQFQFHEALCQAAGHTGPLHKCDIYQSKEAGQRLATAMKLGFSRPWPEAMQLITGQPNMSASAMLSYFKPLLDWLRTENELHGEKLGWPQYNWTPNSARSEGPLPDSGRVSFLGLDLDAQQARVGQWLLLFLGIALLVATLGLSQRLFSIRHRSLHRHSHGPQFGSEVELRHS
Description: A prescribed amount of sample was added to a solution composed of 1-10 mU ACE, 2.5 mM Hip-His-Leu substrate (produced by Peptide Research Institute), 100 mM potassium-phosphate buffer (pH 8.3), and 300 mM NaCl. 0.25 ml of this mixture was incubated at 37° C. for 30 min, and the enzymatic reaction was stopped by adding 0.25 ml of 1N HCl. 1.5 ml of ethylacetate was then added and the mixture was vigorously shaken for 10 second, following which the hippuric acid produced was extracted. […] A blank (ODsbl) was made by adding 1N HCl prior to incubation, and the difference in absorbance, ODs-ODsbl, was determined. […] ACE inhibitory activity was calculated using the following equation: [formula]

Structure (SMILES)	LD50 (ICR mice)	LD50 (Wistar rats)	IC50 ([1]; sample origin: Fish)	IC50 ([1]; sample origin: Peptide Synthesis)	IC50 ([1]; comparison samples of Table 1)
CC[C@H](C)[C@H](NC(=O)[C@H](Cc1c[nH]cn1)NC(=O)[C@@H](NC(=O)[C@@H]1CCCN1)[C@@H](C)O)C(=O)N[C@@H](CCCCN)C(=O)N[C@@H](Cc1c[nH]c2ccccc12)C(=O)NCC(=O)N[C@@H](CC(=O)O)C(=O)O [Peptide (I), Pro-Thr-His-Ile-Lys-Trp-Gly-Asp] (H-PTHIKWGD-OH)	greater than 10 mg/kg	greater than 10 mg/kg	700 nM	600 nM	–
CC(C)C[C@H](NC(=O)[C@@H](NC(=O)[C@@H](N)CC(C)C)C(C)C)C(=O)O [Tripeptide, Leu-Val-Leu, reference compound] (H-Leu-Val-Leu-OH)	–	–	–	–	1700 nM
